Experimental data: article doi:10.1101/2023.08.31.555806v1 (biorxiv, 2023)

Target: T1, VraS (GST-VraS) (Staphylococcus aureus, UniProt Q7A2Q0)
T1 sequence (Q7A2Q0 1-347): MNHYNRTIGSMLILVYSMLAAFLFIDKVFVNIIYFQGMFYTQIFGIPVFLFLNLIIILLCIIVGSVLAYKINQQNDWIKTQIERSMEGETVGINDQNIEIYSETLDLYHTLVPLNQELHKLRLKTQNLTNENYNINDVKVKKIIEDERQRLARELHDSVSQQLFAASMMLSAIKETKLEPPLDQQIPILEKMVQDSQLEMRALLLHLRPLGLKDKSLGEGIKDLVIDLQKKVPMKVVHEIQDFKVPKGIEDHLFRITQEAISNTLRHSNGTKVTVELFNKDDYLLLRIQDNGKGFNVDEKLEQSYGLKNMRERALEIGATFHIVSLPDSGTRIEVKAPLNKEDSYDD
Assay: ATPase activity, pyruvate kinase/lactate dehydrogenase-coupled NADH fluorescence
Assay type: biochemical

- IC50: 0.94 ± 0.29 µM
SMILES: CCSc1nc2ccc(NC(=O)NC(c3cc(C)ccn3)C3CC3)cc2o1 (stereo not shown) [compound 1, 1-(cyclopropyl(4-methylpyridin-2-yl)methyl)-3-(2-(ethylthio)benzo[d]oxazol-6-yl)urea]
